One may read the Ki as a measure of affinity in units of concentration, obtained from inhibition or displacement.

In this test the target is α1 -Adrenergic receptor. Put plainly: α1-Adrenergic receptor binding assay ([^3 H] prazosin competition, rat brain cortex membranes). The procedure:
Rat brain cortex membranes were prepared for [^3 H] prazosin or [^3 H] clonidine binding by homogenizing tissues in 0.32 M sucrose buffered with 50 mM Tris buffer (pH 7.4) in a tissue/buffer ratio of 1:10. After the removal of nuclei by centrifugation at 1000×g for 10 min, P2 membranes were pelleted by centrifuging the supernatant at 22,000×g for 20 min. After two periods of centrifugation at 22,000×g and resuspension in fresh buffer, the membrane suspension (about 2 mg/ml protein) was ready for use.
α1 -Adrenergic receptor binding assays (in triplicate) were carried out with 0.2 nM [^3 H] prazosin in a final volume of 1.0 ml of Tris buffer at pH 7.4 for 30 min at room temperature, using […] phentolamine to determine non-specific binding. […] The concentrations of synthetic compounds for competition binding were in the range of 0.1-100 μM. After binding had reached equilibrium, incubations were terminated by collecting the membranes on Whatman GF/B filters; the filters were washed twice with 5 ml of 50 mM Tris buffer (pH 7.4) at 4° C.
[^3 H]prazosin (76.6 Ci/mmol) and [^3 H]clonidine (47.0 Ci/mmol) were purchased from NEN. All other chemicals used were reagent grade and were purchased from Sigma (St. Louis, Mo.).

Setting [1] is: preliminary results, read-out: affinity to α1 -adrenoceptor (Ki).
Where [2] appears, read: rat brain cortex membranes, 0.2 nM [^3 H] prazosin, pH 7.4, 30 min, room temperature, read-out: α1 Binding (Ki).

Like-named read-outs stand apart in the source and are kept apart here.

Take `COc1ccccc1N1CCN(CC2CN=C3c4ccccc4N=C(SC)N32)CC1` (racemic) [(RS)-I, reference compound]: the Ki under setting [1] came out at 3.55 nM.

Take `COc1ccccc1N1CCN(C[C@H]2CN=C3c4ccccc4N=C(SC)N32)CC1` [Example 16]: the Ki under setting [1] was 1.88 nM and the Ki under setting [2] stood at 1.88 nM. As for `COc1ccccc1N1CCN(C[C@@H]2CN=C3c4ccccc4N=C(SC)N32)CC1` [Example 17], the Ki by setting is: under setting [1], 554 nM; under setting [2], 554 nM.

Consider `COc1ccccc1N1CCN(C[C@H]2CN=C3c4ccccc4NC(=O)N32)CC1` [Example 18], for which the Ki by setting is: under setting [1], 0.1 nM; under setting [2], 0.1 nM.

On to `COc1ccccc1N1CCN(C[C@@H]2CN=C3c4ccccc4NC(=O)N32)CC1` [Example 19], for which the Ki under setting [2] stood at 26 nM.

These data come from patent US5932584A, “Optically active 2,3-dihydroimidazo(1,2-C) quinazoline derivatives, the preparation and antihypertensive use thereof” (National Science Council, priority 1997, dated 1999).
